MIC data for 17 compounds are collected here from patent US20040198756A1, “Medicaments” (priority 2001, published 2004).

Where a name gives a salt, the structure may show the parent alone.

System in the first assay: not listed separately
Nature of the assay: MIC of test compounds against various organisms. The format is cell-based. The note with it: bound holds for all 11 organisms of the panel; read-out: MIC versus all these organisms. How it is done:
The MIC (jig/ml) of test compounds against various organisms was determined:
S. aureus Oxford, S. aureus WCUH29, S. pneumoniae 1629, S. pneumoniae N1387, S. pneumoniae ERY 2, E. faecalis I, E. faecalis 7, H. influenzae Ql, H. influenzae NEMC1, M. catarrhalis 1502, E. coli 7623.
On to `COc1ccc2nccc(N3CCC4(CCN(C[C@H](O)c5ccc6c(c5)NC(=O)CO6)CC4)C3=O)c2n1` [Example 7, 6-{1-R,S-Hydroxy-2-[2-(6-methoxy-[1,5]naphthyridin-4-yl)-1-oxo-2,8-diaza-spiro[4.5]dec-8-yl]-ethyl)4H-benzo[1,4]oxazin-3-one oxalate], for which the MIC was not above 16 µg/mL.
Same read-out and setting: the result for `COc1ccc2nccc(NC(=O)C3(O)CCN(CC(O)c4ccc5c(c4)NC(=O)CS5)CC3)c2n1` (centres unmarked) [Example 9, 4-Hydroxy-1-[2-R,S-hydroxy-2-(3-oxo-3,4-dihydro-2H-benzo[1,4]thiazin-6-yl)-ethyl]-piperidine-4-carboxylic acid (6-methoxy-[1,5]naphthyridin-4-yl)amide oxalate] reads not above 4 µg/mL; that for `COc1ccc2nccc(NC(=O)C3(N)CCN(CC(O)c4cc5c(cc4F)SCC(=O)N5)CC3)c2n1` (centres unmarked) [Example 11, 4-Amino-1-[2-(7-fluoro-3-oxo-3,4-dihydro-2H-benzo[1,4]thiazin-6-yl)-2-R,S-hydroxy-ethyl]-piperidine-4-carboxylic acid (6-methoxy-[1,5]naphthyridin-4-yl)-amide dioxalate], not above 16 µg/mL; that for `COc1ccc2nccc(NC(=O)C3(N)CCN(CC(O)c4ccc5c(c4)NC(=O)CS5)CC3)c2n1` (centres unmarked) [Example 12, 4-Amino-1-[2-R,S-hydroxy-2-(3-oxo-3,4-dihydro-2H-benzo[1,4]thiazin-6-yl)-ethyl]-piperidine-4-carboxylic acid (6-methoxy-[1,5]naphthyridinyl)-amide dihydrochloride], not above 4 µg/mL.
Take `COc1ccc2nccc(NC(=O)C3(OC)CCN(CC(O)c4ccc5c(c4)NC(=O)CS5)CC3)c2n1` (centres unmarked) [Example 16, 1-[2-R,S-Hydroxy-2-(3-oxo-3,4-dihydro-2H-benzo[1,4]thiazin-6-yl)-ethyl]-4-methoxy-piperidine-4-carboxylic acid (6-methoxy-[1,5]naphthyridin-4-yl)-amide dihydrochloride]: the MIC was not above 4 µg/mL.
Turning to `COc1ccc2nccc(NC(=O)C3(OC)CCN(C[C@@H](O)c4ccc5c(c4)OCCO5)CC3)c2n1` [Example 17, 1-[2-(2,3-Dihydro-benzo[1,4]dioxin-6-yl)-2-R,S-hydroxy-ethyl]-4-methoxy-piperidine-4-carboxylic acid (6-methoxy-[1,5]naphthyridin-4-yl)-amide dihydrochloride], the MIC was not above 16 µg/mL.
For the compound `COc1ccc2nccc(NC(=O)C3(C(N)=O)CCN(C[C@@H](O)c4ccc5c(c4)OCCO5)CC3)c2n1` [Example 21, 1-[2-(2,3-Dihydro-benzo[1,4]dioxin-6-yl)-2-R,S-hydroxy-ethyl]-piperidine-4,4-dicarboxylic acid amide (6-methoxy-[1,5]naphthyridin-4-yl)-amide dihydrochloride], the MIC is not above 16 µg/mL.
Turning to `COc1ccc2nccc(NC(=O)C3(O)CCN(CCc4cc5c(cn4)OCCO5)CC3)c2n1` [Example 25, 1-[2-(2,3-Dihydro-[1,4]dioxino[2,3-c]pyridin-7-yl)-ethyl]4-hydroxy-piperidine-4-carboxylic acid(6-methoxy-[1,5]naphthyridin-4-yl)-amide hydrochloride], the MIC was not above 4 µg/mL.
Regarding `COc1cc(F)c2nccc(NC(=O)C3(O)CCN(CCc4cc5c(cn4)OCCO5)CC3)c2c1` [Example 26, 1-[2-(2,3-Dihydro-[1,4]dioxino[2,3-c]pyridin-7-yl)-ethyl]-4-hydroxy-piperidine-4-carboxylic acid(8-fluoro-6-methoxy-quinolin-4-yl)-amide hydrochloride], the MIC is not above 4 µg/mL.
With `COc1ccc2nccc(CCC3(O)CCN(CCc4ccc5c(c4)NC(=O)CS5)CC3)c2n1` [Example 28, 6-(2-{4-hydroxy-4-[2-(6-methoxy-[1,5]naphthyridin-4-yl)ethyl]piperidin-1yl}ethyl)-4H-benzo[1,4]thiazin-3-one], the MIC was not above 4 µg/mL.

Still in this assay, the particulars now being: bound holds only for some of the 11 organisms of the panel; read-out: MIC versus some of these organisms.
`COc1ccc2nccc(NC(=O)C3(C(=O)O)CCN(CCc4ccc5c(c4)NC(=O)CS5)CC3)c2n1` [Example 6, 4-(6-Methoxy-[1,5]naphthyridin-4-ylcarbamoyl)-1-[2-(3-oxo-3,4-dihydro-2H-benzo[1,4]thiazin-6-yl)-ethyl]-piperidine-4-carboxylic acid]: the MIC was not above 64 µg/mL.
On the same count and under the same terms, the result for `COc1ccc2nccc(NC(=O)[C@@]3(O)CCN(CCc4ccc5c(c4)NC(=O)CS5)C[C@@H]3OC)c2n1` [Example 19, 4-R/S-Hydroxy-3-S/R-methoxy-1-[2-(3-oxo-3,4-dihydro-2H-benzo[1,4]thiazin-6-yl)-ethyl]-piperidine-4-carboxylic acid (6-methoxy-[1,5]naphthyridinyl)-amide dihydrochloride] reads not above 64 µg/mL.

Staying with this assay, now noted: read-out: MIC versus all these organisms.
For the compound `COc1ccc2nccc(NC(=O)C3(O)CCN(CC(=O)c4ccc5c(c4)NC(=O)CS5)CC3)c2n1` [Example 8, 4-Hydroxy-1-[2-oxo-2-(3-oxo-3,4-dihydro-2H-benzo[1,4]thiazin-6-yl)-ethyl]-piperidine-4-carboxylic acid (6-methoxy-[1,5]naphthyridin-4-yl)-amide oxalate], the MIC was not above 64 µg/mL.
As for `COc1ccc2nccc(NC(=O)C3(CO)CCN(CCc4ccc5c(c4)NC(=O)CS5)CC3)c2n1` [Example 10, 4-Hydroxymethyl-1-[2-(3-oxo-3,4-dihydro-2H-benzo[1,4]thiazin-6-yl)-ethyl]-piperidine-4-carboxylic acid (6-methoxy-[1,5]naphthyridin-4-yl)-amide oxalate], the MIC was not above 4 µg/mL.
Turning to `COc1ccc2nccc(NC(=O)C3(O)CCN(CCc4cc5c(nn4)SCC(=O)N5)CC3)c2n1` [Example 14, 4-Hydroxy-1-[2-(6-oxo-6,7-dihydro-5H-pyridazino[3,4-b][1,4]thiazin-3-yl)-ethyl]-piperidine-4-carboxylic acid (6-methoxy-[1,5]naphthyridin-4-yl)-amide dihydrochloride], the MIC is not above 4 µg/mL.
For the compound `COc1ccc2nccc(NC(=O)C3(C#N)CCN(CCc4ccc5c(c4)NC(=O)CS5)CC3)c2n1.Cl.Cl` [Example 20, 4-Cyano-1-[2-(3-oxo-3,4-dihydro-2H-benzo[1,4]thiazin-6-yl)-ethyl]-piperidine-4-carboxylic acid (6-methoxy-[1,5]naphthyridin-4-yl)-amide dihydrochloride], the MIC is not above 64 µg/mL.

A further assay concerns S. aureus WCUH29, S. pneumoniae 1629, H. influenzae ATCC 51907, M. catarrhalis Ravisio. Nature of the assay: MIC of further test compounds against an alternative selection of organisms. The format is cell-based. The note with it: read-out: MIC values versus some of these organisms. How it is done: The MIC (μg/ml) of further test compounds against an alternative selection of organisms was determined:
S. aureus WCUH29, S. pneumoniae 1629, H. influenzae ATCC 51907, M. catarrhalis Ravisio.
Regarding `COc1ccc2nccc(NC(=O)C3(C(F)(F)F)CCN(CCc4cc5c(nn4)SCC(=O)N5)CC3)c2n1` [Example 24, 1-[2-(6-Oxo-6,7-dihydro-5H-8-thia-1,2,5-triazanaphthalen-3-yl)ethyl]-4-trifluoromethylpiperidine-4-carboxylic acid (6-methoxy-[1,5]naphthyridin-4-yl) amide dihydrochloride], the MIC was not above 16 µg/mL.
